From PubChem BioAssay AID1259407 (Chemical Carcinogenesis Research Information System (CCRIS), 2018)
The source made the active and inactive calls. The rule behind the calls is not given here.

Tested on: CCRIS mutagenicity, Ames/micronucleus/aberration tests
Test: CCRIS mutagenicity studies
[1] = Test System: AMES SALMONELLA TYPHIMURIUM, Strain/Indicator: TA98, Metabolic Activation: NONE, Method: STANDARD PLATE
[2] = Test System: AMES SALMONELLA TYPHIMURIUM, Strain/Indicator: TA100, Metabolic Activation: NONE, Method: STANDARD PLATE
[3] = Test System: AMES SALMONELLA TYPHIMURIUM, Strain/Indicator: TA1535, Metabolic Activation: NONE, Method: STANDARD PLATE
[4] = Test System: AMES SALMONELLA TYPHIMURIUM, Strain/Indicator: TA1537, Metabolic Activation: NONE, Method: STANDARD PLATE
[5] = Test System: AMES SALMONELLA TYPHIMURIUM, Strain/Indicator: TA1538, Metabolic Activation: NONE, Method: STANDARD PLATE
[6] = Test System: AMES SALMONELLA TYPHIMURIUM, Strain/Indicator: TA98, Metabolic Activation: RAT, LIVER, S-9, AROCLOR 1254, Method: STANDARD PLATE
[7] = Test System: AMES SALMONELLA TYPHIMURIUM, Strain/Indicator: TA100, Metabolic Activation: RAT, LIVER, S-9, AROCLOR 1254, Method: STANDARD PLATE
[8] = Test System: AMES SALMONELLA TYPHIMURIUM, Strain/Indicator: TA1535, Metabolic Activation: RAT, LIVER, S-9, AROCLOR 1254, Method: STANDARD PLATE
[9] = Test System: AMES SALMONELLA TYPHIMURIUM, Strain/Indicator: TA1537, Metabolic Activation: RAT, LIVER, S-9, AROCLOR 1254, Method: STANDARD PLATE

Measured: mutagenic call

Oc1ccccc1-c1ccccc1
active: Test System: AMES SALMONELLA TYPHIMURIUM, Strain/Indicator: TA1535, Metabolic Activation: NONE, Method: PREINCUBATION active; positive | Test System: CHO/HGPRT, Strain/Indicator: CHO/GIEMSA, Metabolic Activation: NONE, Method: STANDARD PLATE active; positive | Test System: Mouse lymphoma, Strain/Indicator: L5178Y (tk+/tk-), Metabolic Activation: Rat, Liver, S-9, Aroclor 1254, Method: Suspension/plate active; equivocal (previously evaluated positive)
inactive: Test System: AMES SALMONELLA TYPHIMURIUM, Strain/Indicator: TA98, Metabolic Activation: HAMSTER, LIVER, S-9, AROCLOR 1254 (10%), Method: STANDARD PLATE inactive; negative | Test System: AMES SALMONELLA TYPHIMURIUM, Strain/Indicator: TA98, Metabolic Activation: HAMSTER, LIVER, S-9, AROCLOR 1254, Method: PREINCUBATION inactive; negative | Test System: AMES SALMONELLA TYPHIMURIUM, Strain/Indicator: TA98, Metabolic Activation: NONE, Method: HOST-MEDIATED inactive; negative | Test System: AMES SALMONELLA TYPHIMURIUM, Strain/Indicator: TA98, Metabolic Activation: NONE, Method: PREINCUBATION inactive; negative | [1] inactive; negative | Test System: AMES SALMONELLA TYPHIMURIUM, Strain/Indicator: TA98, Metabolic Activation: RAT, LIVER, S-9, AROCLOR 1254 (10%), Method: STANDARD PLATE inactive; negative | Test System: AMES SALMONELLA TYPHIMURIUM, Strain/Indicator: TA98, Metabolic Activation: RAT, LIVER, S-9, AROCLOR 1254, Method: PREINCUBATION inactive; negative | Test System: AMES SALMONELLA TYPHIMURIUM, Strain/Indicator: TA100, Metabolic Activation: HAMSTER, LIVER, S-9, AROCLOR 1254 (10%), Method: STANDARD PLATE inactive; negative | Test System: AMES SALMONELLA TYPHIMURIUM, Strain/Indicator: TA100, Metabolic Activation: HAMSTER, LIVER, S-9, AROCLOR 1254, Method: PREINCUBATION inactive; negative | Test System: AMES SALMONELLA TYPHIMURIUM, Strain/Indicator: TA100, Metabolic Activation: NONE, Method: HOST-MEDIATED inactive; negative | Test System: AMES SALMONELLA TYPHIMURIUM, Strain/Indicator: TA100, Metabolic Activation: NONE, Method: PREINCUBATION inactive; negative | [2] inactive; negative | Test System: AMES SALMONELLA TYPHIMURIUM, Strain/Indicator: TA100, Metabolic Activation: RAT, LIVER, S-9, AROCLOR 1254 (10%), Method: STANDARD PLATE inactive; negative | Test System: AMES SALMONELLA TYPHIMURIUM, Strain/Indicator: TA100, Metabolic Activation: RAT, LIVER, S-9, AROCLOR 1254, Method: PREINCUBATION inactive; negative | Test System: AMES SALMONELLA TYPHIMURIUM, Strain/Indicator: TA1535, Metabolic Activation: HAMSTER, LIVER, S-9, AROCLOR 1254 (10%), Method: STANDARD PLATE inactive; negative | Test System: AMES SALMONELLA TYPHIMURIUM, Strain/Indicator: TA1535, Metabolic Activation: HAMSTER, LIVER, S-9, AROCLOR 1254, Method: PREINCUBATION inactive; negative | [3] inactive; negative | Test System: AMES SALMONELLA TYPHIMURIUM, Strain/Indicator: TA1535, Metabolic Activation: RAT, LIVER, S-9, AROCLOR 1254 (10%), Method: STANDARD PLATE inactive; negative | Test System: AMES SALMONELLA TYPHIMURIUM, Strain/Indicator: TA1535, Metabolic Activation: RAT, LIVER, S-9, AROCLOR 1254, Method: PREINCUBATION inactive; negative | Test System: AMES SALMONELLA TYPHIMURIUM, Strain/Indicator: TA1537, Metabolic Activation: HAMSTER, LIVER, S-9, AROCLOR 1254 (10%), Method: STANDARD PLATE inactive; negative | Test System: AMES SALMONELLA TYPHIMURIUM, Strain/Indicator: TA1537, Metabolic Activation: HAMSTER, LIVER, S-9, AROCLOR 1254, Method: PREINCUBATION inactive; negative | Test System: AMES SALMONELLA TYPHIMURIUM, Strain/Indicator: TA1537, Metabolic Activation: NONE, Method: PREINCUBATION inactive; negative | [4] inactive; negative | Test System: AMES SALMONELLA TYPHIMURIUM, Strain/Indicator: TA1537, Metabolic Activation: RAT, LIVER, S-9, AROCLOR 1254 (10%), Method: STANDARD PLATE inactive; negative | Test System: AMES SALMONELLA TYPHIMURIUM, Strain/Indicator: TA1537, Metabolic Activation: RAT, LIVER, S-9, AROCLOR 1254, Method: PREINCUBATION inactive; negative | Test System: AMES SALMONELLA TYPHIMURIUM, Strain/Indicator: TA1538, Metabolic Activation: HAMSTER, LIVER, S-9, AROCLOR 1254 (10%), Method: STANDARD PLATE inactive; negative | [5] inactive; negative | Test System: AMES SALMONELLA TYPHIMURIUM, Strain/Indicator: TA1538, Metabolic Activation: RAT, LIVER, S-9, AROCLOR 1254 (10%), Method: STANDARD PLATE inactive; negative | Test System: CHO/HGPRT, Strain/Indicator: CHO/GIEMSA, Metabolic Activation: RAT, LIVER, S-9, AROCLOR 1254, Method: STANDARD PLATE inactive; negative | Test System: E. COLI, Strain/Indicator: WP2, Metabolic Activation: NONE, Method: HOST-MEDIATED inactive; negative | Test System: Mouse lymphoma, Strain/Indicator: L5178Y (tk+/tk-), Metabolic Activation: None, Method: Suspension/plate inactive; negative

Nc1c(S(=O)(=O)O)cc(NC2CCCCC2)c2c1C(=O)c1ccccc1C2=O
inactive: [1] inactive; negative | [6] inactive; negative | [2] inactive; negative | [7] inactive; negative | [3] inactive; negative | [8] inactive; negative | [4] inactive; negative | [9] inactive; negative | [5] inactive; negative | Test System: AMES SALMONELLA TYPHIMURIUM, Strain/Indicator: TA1538, Metabolic Activation: RAT, LIVER, S-9, AROCLOR 1254, Method: STANDARD PLATE inactive; negative

O=S(=O)(O)c1cccc2cccnc12
inactive: [1] inactive; negative | [6] inactive; negative | [2] inactive; negative | [7] inactive; negative | [3] inactive; negative | [8] inactive; negative | [4] inactive; negative | [9] inactive; negative

CC(=O)ON(OC(C)C)C(=O)c1ccccc1
active: [2] active; positive | Test System: AMES SALMONELLA TYPHIMURIUM, Strain/Indicator: TA100, Metabolic Activation: RAT, S-9, AROCLOR, Method: STANDARD PLATE active; positive

O=[N+]([O-])c1ccc(CN2C3c4ccccc4-c4ccccc4C32)cc1 (stereo not given)
active: [2] active; positive
